Data taken from PubChem BioAssay AID504627 (NMMLSC, 2011).
Calls of active or inactive are those of the source.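 The calls were made as follows: active = polarization drop versus untreated control wells larger than 25 mP; inactive = the rest.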

Assays:
Assay in all cases: Bcl-2 family protein peptide binding inhibitors, dose response, biochemical, fluorescence polarization, powder compounds set 1, panel (AID 504627)
[1] = molecular target: Apoptosis regulator Bcl-2 (Homo sapiens) (UniProt P10415); details: GST-Bcl-2 family protein, FITC-peptide fluorescence polarization, Bcl2; for polarization signal (mP), lower = inhibition: at 50 µM (top of the series)
Apoptosis regulator Bcl-2 (Homo sapiens), sequence (P10415 whole entry, looked up): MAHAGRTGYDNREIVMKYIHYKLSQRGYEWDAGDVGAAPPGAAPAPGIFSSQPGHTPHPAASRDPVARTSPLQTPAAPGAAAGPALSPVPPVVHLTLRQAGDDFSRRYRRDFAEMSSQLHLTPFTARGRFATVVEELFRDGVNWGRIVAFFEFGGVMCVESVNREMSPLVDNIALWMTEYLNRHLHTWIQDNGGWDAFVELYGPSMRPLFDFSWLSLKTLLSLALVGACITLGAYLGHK

[2] = molecular target: Bcl-2-like protein 10 (Homo sapiens) (UniProt Q9HD36); details: GST-Bcl-2 family protein, FITC-peptide fluorescence polarization, BclB; for polarization signal (mP), lower = inhibition: at 50 µM (top of the series)
Bcl-2-like protein 10 (Homo sapiens), sequence (Q9HD36 whole entry, looked up): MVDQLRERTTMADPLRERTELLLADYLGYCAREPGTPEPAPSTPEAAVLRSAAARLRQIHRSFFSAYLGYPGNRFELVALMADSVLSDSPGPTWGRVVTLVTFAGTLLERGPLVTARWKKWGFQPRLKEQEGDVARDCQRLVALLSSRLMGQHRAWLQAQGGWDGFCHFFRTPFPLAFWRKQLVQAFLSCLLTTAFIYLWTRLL

[3] = molecular target: Bcl-2-like protein 1 (Homo sapiens) (UniProt Q07817); details: GST-Bcl-2 family protein, FITC-peptide fluorescence polarization, BclXL; for polarization signal (mP), lower = inhibition: at 50 µM (top of the series)
Bcl-2-like protein 1 (Homo sapiens), sequence (Q07817 whole entry, looked up): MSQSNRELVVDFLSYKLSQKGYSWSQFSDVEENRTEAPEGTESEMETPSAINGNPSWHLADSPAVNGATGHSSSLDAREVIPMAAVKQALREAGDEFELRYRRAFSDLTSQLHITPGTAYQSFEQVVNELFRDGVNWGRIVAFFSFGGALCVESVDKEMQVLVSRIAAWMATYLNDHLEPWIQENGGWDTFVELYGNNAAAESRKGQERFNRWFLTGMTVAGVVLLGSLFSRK

[4] = molecular target: Bcl-2-related protein A1 (Homo sapiens) (UniProt Q16548); details: GST-Bcl-2 family protein, FITC-peptide fluorescence polarization, Bfl1; for polarization signal (mP), lower = inhibition: at 50 µM (top of the series)
Bcl-2-related protein A1 (Homo sapiens), sequence (Q16548 whole entry, looked up): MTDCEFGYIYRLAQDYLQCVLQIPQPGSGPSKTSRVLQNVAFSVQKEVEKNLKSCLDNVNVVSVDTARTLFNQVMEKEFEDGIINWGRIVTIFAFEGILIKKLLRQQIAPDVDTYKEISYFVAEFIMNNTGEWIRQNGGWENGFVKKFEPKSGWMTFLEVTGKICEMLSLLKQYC

SMILES	polarization signal (mP), lower = inhibition [1]	IC50 [2]	polarization signal (mP), lower = inhibition [3]	polarization signal (mP), lower = inhibition [4]	polarization signal (mP), lower = inhibition [2]	IC50 [1]	IC50 [3]	IC50 [4]
O=C1NC(=O)C2(Cc3c(nc4ccccn4c3=O)N3CCCCCC32)C(=O)N1Cc1ccccc1 (stereo not given)	inactive	1.16 µM	inactive	inactive	–	–	–	–
Cc1ccc(-c2cc(-c3ccc(F)cc3)c(C#N)c(N)n2)o1	inactive	–	inactive	inactive	inactive	–	–	–
Cc1ccc(-c2cc(-c3ccc(C)o3)nc(N)c2C#N)cc1	inactive	–	inactive	inactive	inactive	–	–	–
COc1ccccc1-n1c(-c2ccccc2)c[nH]c1=S	inactive	–	inactive	inactive	inactive	–	–	–
Cc1ccc(C=NNC(=O)CSc2nnc(-c3ccc(Cl)cc3)n2-c2ccccc2)o1	inactive	8.58 µM	inactive	inactive	–	–	–	–
CNC(CC(=O)c1ccc([N+](=O)[O-])cc1)C(Cl)(Cl)Cl (stereo not given)	inactive	–	inactive	inactive	inactive	–	–	–
O=C1C(Cl)=C(N2CCN(c3ccccc3[N+](=O)[O-])CC2)C(=O)c2ccccc21	–	3.99 µM	–	–	–	5.64 µM	4.4 µM	2.73 µM
O=c1c2c(n3nnnc3n1Cc1ccccc1)-c1ccccc1CC21CCCC1	inactive	1.13 µM	inactive	inactive	–	–	–	–
Oc1ccc(NCc2ccccc2OCc2ccccc2)cc1	inactive	–	inactive	inactive	inactive	–	–	–
Cc1cc(-c2cc(-c3ccc(Cl)cc3)nc(N)c2C#N)co1	inactive	–	inactive	inactive	inactive	–	–	–
